Data reported in article PMC9883013 (eLife, 2023).
Where “and” joins values, the source holds several entries; their conditions need not be identical. Identical values can stand only once. Entries after “also recorded” stand apart in the source; their conditions may differ. Like-named read-outs stand apart in the source and are kept apart here.

Legend:
SERT-PG^601,602AA [1] = molecular target: T1, SERT-PG^601,602AA (Homo sapiens, UniProt P31645, G602A/P601A); assay: Immunoblotting of glycosylation state (mature vs core-glycosylated band) of the SERT mutant; format: cell-based
T1 construct: expressed in transfected cells; host or cells: HEK293 (ATCC CRL-1573), transient PEI transfection

WT-SERT = WT-SERT (Homo sapiens, UniProt P31645); assay: [3H]5-HT uptake by cells transiently expressing WT-SERT after 24 hr preincubation; conditions: 30 µM for 24 hr; 0.1 µM [3H]5-HT
SERT = molecular target: T2, SERT (Homo sapiens, UniProt P31645); assay: Inhibition of [3H]citalopram binding to membranes from HEK293 cells expressing GFP-SERT
T2 construct: expressed in transfected cells
Procedure: Membranes were prepared from HEK293 cells stably expressing GFP-SERT. […] The pellets were resuspended in a buffer containing 20 mM HEPES, 2 mM MgCl2, 1 mm EDTA, pH adjusted to 7.4 with NaOH, subjected to freeze-thaw cycles in liquid nitrogen and sonicated on ice three times for 10 s with 30 s intervals. Following another centrifugation step, the whole-cell membrane pellets were resuspended in buffer and protein concentration was estimated by dye binding (Coomassie Brilliant Blue R-250; Bio-Rad, USA). […] Binding reactions were also done in the presence of 120 mM K^+ buffer (buffer composition: 20 mM Tris-HCl, pH 7.4, 1 mM EDTA, 2 mM MgCl2, 120 mM KCl; 4 mM Na^+ were present from the carry-over of HEPES·NaOH and from Na·EDTA). For binding reactions under these conditions, 7–8 µg of membranes were used to improve the dynamic range of binding. The binding reactions were terminated by harvesting the membranes on glass fiber filters precoated with polyethylenimine and rapid washing with ice-cold wash buffer (10 mM Tris·HCl, pH 7.4, 120 mM NaCl, 2 mM MgCl2). The radioactivity trapped on the filters was quantified by liquid scintillation counting. Nonspecific binding was measured in the presence of 10 µM paroxetine.

[2] = molecular target: T3, wild-type human YFP-tagged SERT (Homo sapiens, UniProt P31645); assay: Saturation kinetics (KM, Vmax) of 5-HT uptake by SERT after preincubation with inhibitor
[3] = molecular target: T4, wild-type GFP-tagged human SERT (Homo sapiens, UniProt P31645); assay: Whole-cell patch clamp recordings of currents through SERT; format: cell-based; conditions: for transient peak current on application of the compound: 100 µM, absence of substrate
T4 construct: expressed in transfected cells
Procedure: HEK293 cells stably expressing wild-type GFP-tagged human SERT were seeded at low density on poly-D-lysine-coated dishes. Twenty hr after seeding, these cells were subjected to patch clamp recordings in the whole-cell configuration. In most instances cells were continuously maintained in an external solution containing 140 mM NaCl, 3 mM KCl, 2.5 mM CaCl2, 2 mM MgCl2, 20 mM glucose, and 10 mM HEPES (pH adjusted to 7.4 with NaOH) and the drugs were diluted therein. The internal solution in the patch pipette contained 133 mM potassium gluconate (CH2OH(CHOH)4COOK), 5.9 mM NaCl, 1 mM CaCl2, 0.7 mM MgCl2, 10 mM HEPES, 10 mM EGTA (pH adjusted to 7.2 with KOH). Drugs were applied using a 4-tube ALA perfusion manifold (NPI Electronic GmbH, Germany) and a DAD-12 superfusion system (Adams & List, Westbury, NY, USA) allowing for complete solution exchange around the cells within 100 ms. Current amplitudes and associated kinetics were quantified using Clampfit 10.2 software. Passive holding currents were subtracted, and the traces were filtered using a 100 Hz digital Gaussian low-pass filter.

[4] = test system: YFP-tagged human SERT-PG^601,602AA in serotonergic neurons; assay: Delivery of mutant transporter to the fan-shaped body in transgenic flies fed with drug; format: in vivo, Drosophila melanogaster; conditions: 100 µM in food for 48 hr, 3-day old male flies
Source text: (§1) The transgenic UAS reporter lines for YFP-tagged human wild-type SERT and SERT-PG^601,602AA were generated using the pUAST-attB vector (gift from Drs Bischof and Basler, University of Zürich) and injected into embryos of ZH-86Fb flies (Bloomington stock no. 24749). Positive transformants were isolated and selected. TRH-T2A-Gal4 (Bloomington stock no. 84694) was used to drive the expression of transporters in serotonergic neurons. […] The brains of these flies were then imaged using confocal microscopy. All flies were kept at 25°C, and all crosses were performed at 25°C.
(§2) Adult fly brains were dissected in PBS and fixed in 2% paraformaldehyde in PBS for 1 hr at room temperature. Brains were then washed three times in 0.1% Triton X-100 in PBS for 20 min on a shaker. Blocking was performed in 10% goat serum for 1 hr at room temperature on a shaker. Brains were then incubated in primary antibody overnight in PBS containing 3% BSA and 0.3% Triton X-100 at 4°C on a shaker. The rabbit polyclonal IgG directed against GFP (1:1000 dilution; A-11122, Invitrogen) and anti-serotonin antibody (S5545, Sigma-Aldrich) were used as primary antibodies. After three washes for 20 min with PBS containing 0.1% Triton X-100, the brains were incubated overnight at 4°C with a secondary antibody in PBS containing 0.3% Triton X-100 on a shaker. […]

[5] = molecular target: T3, wild-type human YFP-tagged SERT; assay: Inhibition of SERT-mediated [3H]5-HT uptake in HEK293 cells stably expressing YFP-SERT; format: cell-based; set-up: expressed in transfected cells
[6] = molecular target: T4, wild-type GFP-tagged human SERT; assay: Whole-cell patch clamp recordings of currents through SERT; format: cell-based; conditions: 100 µM pre-applied for 1 s or 3 s in the absence of 5-HT; internal 150 mM NaCl
SERT-PG^601,602AA [7] = molecular target: T1, SERT-PG^601,602AA; assay: Functional rescue (pharmacochaperoning) of folding-deficient SERT mutant, [3H]5-HT uptake after 24 hr preincubation; format: cell-based; conditions: for [3H]5-HT uptake normalized to untreated wild-type SERT: 30 µM for 24 hr, 0.1 µM [3H]5-HT, untreated mutant 14.8 ± 5.3%; for Emax: read-out: EMAX of pharmacochaperoning (rescued uptake, % of transport velocity in cells expressing wild-type SERT)
[8] = test system: YFP-tagged wild-type human SERT in serotonergic neurons; assay: Localization of wild-type transporter in the fan-shaped body in transgenic flies fed with drug; format: in vivo, Drosophila melanogaster; conditions: 100 µM in food for 48 hr, flies harboring wild-type human SERT
Source text: as §1, §2

NCCc1c[nH]c2ccc(O)cc12 = assay: cells, lysate or membranes; conditions: other: absence of any inhibitor; pH 7.4
[9] = preincubation with 3 µM inhibitor
[10] = preincubation with 10 µM inhibitor
[11] = preincubation with 30 µM inhibitor
[12] = inhibition of 10 µM 5-HT-induced steady current

COC(=O)[C@H]1[C@@H](OC(=O)c2ccccc2)C[C@@H]2CC[C@H]1N2C [cocaine]
effect on SERT species carrying mature glycans (SERT-PG^601,602AA [1]; 30 µM (saturating concentration), 24 hr): did not cause any appreciable increase
[3H]5-HT uptake normalized to untreated wild-type SERT (WT-SERT): 111.4 ± 4.2%
potency in inhibiting [3H]citalopram binding in 120 mM KCl compared with 120 mM NaCl (SERT): substantially less potent (by an order of magnitude)
mode of inhibition of substrate uptake by SERT [2]: competitive
VMAX of 5-HT transport by SERT [2, 9]: 118.3 pmol min^–1 10^–6 cells
VMAX of 5-HT transport by SERT [2, 10]: 121.1 pmol min^–1 10^–6 cells
VMAX of 5-HT transport by SERT [2, 11]: 120.1 pmol min^–1 10^–6 cells
kapp of current inhibition, level at which it leveled off ([3]; 10 µM 5-HT-induced steady current, –60 mV): about 2 s^–1
transient peak current on application of the compound [3]: induced transient peak currents

O=CNC(Cc1ccc2c(c1)OCO2)Cc1ccc2c(c1)OCO2 [ECSI#6, N-formyl-1,3-bis (3,4-methylenedioxyphenyl)-prop-2-yl-amine]
EC50 (SERT-PG^601,602AA [1]): 0.44 µM
EMAX of ratio of mature (M) to core-glycosylated band (C) (SERT-PG^601,602AA [1]; 24 hr treatment, densitometry, corrected for Gβ): 1.42 AU
delivery of the mutant transporter to the presynaptic territory (fan-shaped body) [4]: partially restored the delivery of the mutant transporter to the presynaptic territory
[3H]5-HT uptake normalized to untreated wild-type SERT (WT-SERT): 103.3 ± 11.3%
IC50 ([5]; IC50(0.1), inhibition of [3H]5-HT uptake, 0.1 µM [3H]5-HT, absence of additional unlabeled 5-HT): 441 µM
IC50 ([5]; IC50(1), inhibition of [3H]5-HT uptake, 0.1 µM [3H]5-HT, presence of 1 µM unlabeled 5-HT): 74.1 µM
IC50 ([5]; IC50(3), inhibition of [3H]5-HT uptake, 0.1 µM [3H]5-HT, presence of 3 µM unlabeled 5-HT): 25.6 µM
IC50 ([5]; IC50(10), inhibition of [3H]5-HT uptake, 0.1 µM [3H]5-HT, presence of 10 µM unlabeled 5-HT): 19.3 µM
IC50 ([5]; low 5-HT concentration (0.1 µM), read-out: IC50 value in the uptake assay): ~500 µM
effect of pre-application on 5-HT-induced peak current amplitude [6]: did not result in the reduction of the peak current amplitude
fold more potent in displacing [3H]citalopram in 120 mM KCl than in 120 mM NaCl (SERT): about 10 fold
binding relative to serotonin (Dixon plots) (SERT; 1 and 10 µM serotonin): mutually exclusive
IC50 (SERT; IC50(1 µM 5-HT), inhibition of [3H]citalopram binding, 120 mM Na+, 1 µM 5-HT): 28.6 µM
IC50 (SERT; IC50(10 µM 5-HT), inhibition of [3H]citalopram binding, 120 mM Na+, 10 µM 5-HT): 60 µM
IC50 (SERT; IC50(no 5-HT), inhibition of [3H]citalopram binding, 120 mM Na+, 3 nM [3H]citalopram, no 5-HT): 16 µM
IC50 (SERT; buffer with 120 mM K+, read-out: IC50(120 K+), inhibition of [3H]citalopram binding): 4.18 µM and 5 µM
IC50 (SERT; buffer with 120 mM Na+ (Na+/K+ comparison), read-out: IC50(120 Na+), inhibition of [3H]citalopram binding): 46.2 µM
affinity estimate, fold lower than the KD of 1 µM required for ToNaS (SERT; presence of 10 µM 5-HT): > 30 fold
[3H]5-HT uptake normalized to untreated wild-type SERT (SERT-PG^601,602AA [7]): 56.5 ± 5.1%
EC50 (SERT-PG^601,602AA [7]; 24 hr preincubation, read-out: EC50 for pharmacochaperoning (rescued uptake)): 2.9 µM
Emax (SERT-PG^601,602AA [7]): 52%
effect on level of fluorescence in the fan-shaped body [8]: did not have any appreciable effect
mode of inhibition of substrate uptake by SERT [2]: uncompetitive inhibition
VMAX of 5-HT transport by SERT [2, 10]: 89.5 pmol min^–1 10^–6 cells
VMAX of 5-HT transport by SERT [2, 11]: 49.9 pmol min^–1 10^–6 cells
VMAX of 5-HT transport by SERT ([2]; preincubation with 100 µM inhibitor): 20.8 pmol min^–1 10^–6 cells
IC50 ([3]; 30 µM 5-HT, ECSI#6 co-applied, read-out: IC50 of block of the 5-HT-induced steady current): 4.5 µM and ~5 µM
effect on 5-HT-induced steady current ([3]; 100 µM in continuous presence of 10 µM 5-HT): complete suppression of the current
effect of intracellular application on 5-HT-induced current amplitude ([3]; 100 µM in the electrode solution, 30 µM 5-HT): only had a modest effect, if any; also recorded: did not cause an appreciable current block
ratio of the second and first pulse (peak 2/peak 1) ([3]; 100 µM pre-applied for 1 s or 3 s): always close to one
transient peak current on application of the compound [3]: failed to do so
koff (y-intercept of kapp vs concentration) [3, 12]: 1.7±0.5 s^–1
kon (slope of kapp vs concentration) [3, 12]: 2.1*10^4±3.5*10^3 M^–1 s^–1

wild-type human YFP-tagged SERT (Homo sapiens)
Km (NCCc1c[nH]c2ccc(O)cc12): 2.3 µM

CCC1CC2CC3c4[nH]c5ccc(O)cc5c4CCN(C2)C13 (stereo not drawn) [noribogaine, reference compound]
delivery of the mutant transporter to the presynaptic territory (fan-shaped body) [4]: partially restored the delivery of the mutant transporter to the presynaptic territory
[3H]5-HT uptake normalized to untreated wild-type SERT (WT-SERT): 93.5 ± 28.8%
potency in inhibiting [3H]citalopram binding in 120 mM KCl compared with 120 mM NaCl (SERT): distinct binding preference was not obvious
[3H]5-HT uptake normalized to untreated wild-type SERT (SERT-PG^601,602AA [7]): 71.9 ± 6.4%
Emax (SERT-PG^601,602AA [7]): 69.5%
effect on level of fluorescence in the fan-shaped body [8]: did not have any appreciable effect
mode of inhibition of substrate uptake by SERT [2]: non-competitive
VMAX of 5-HT transport by SERT ([2]; preincubation with 1 µM inhibitor): 82.4 pmol min^–1 10^–6 cells
VMAX of 5-HT transport by SERT [2, 9]: 39.9 pmol min^–1 10^–6 cells
VMAX of 5-HT transport by SERT [2, 10]: 19.5 pmol min^–1 10^–6 cells
transient peak current on application of the compound [3]: induced transient peak currents
